Like-named read-outs stand apart in the source and are kept apart here.
Key:
[1] = target: human TLR8 (Homo sapiens (Human), UniProt Q9NR97); assay: TLR8 inhibition reporter assay (HEK-Blue cells, SEAP reporter, R848 stimulation);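 further: compounds tested from 0.05 nM to 50 µM, 22 h at 37 °C, SEAP measured with HEK-Blue Detection, inhibition relative to agonist plus DMSO versus a known inhibitor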
Experimental: TLR7/8/9 Inhibition Reporter Assays
Briefly, cells are seeded into Greiner 384 well plates (15000 cells per well for TLR7, 20,000 for TLR8 and 25,000 for TLR9) and then treated with test compounds in DMSO to yield a final dose response concentration range of 0.05 nM-50 μM. […] After a 22 hour incubation at 37° C., 5% CO2, SEAP levels are determined with the addition of HEK-Blue™ Detection reagent (Invivogen), a cell culture medium that allows for detection of SEAP, according to manufacturer's specifications. The percent inhibition is determined as the % reduction in the HEK-Blue signal present in wells treated with agonist plus DMSO alone compared to wells treated with a known inhibitor.

[2] = target: human TLR9 (Homo sapiens (Human), UniProt Q9NR96); assay: TLR9 inhibition reporter assay (HEK-Blue cells, SEAP reporter, ODN2006 stimulation);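 further: compounds tested over 0.05 nM to 50 µM, 22 h incubation, inhibition taken as SEAP signal drop from agonist plus DMSO wells toward a known inhibitor control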
Chain of human TLR9 (Q9NR96 26-1032): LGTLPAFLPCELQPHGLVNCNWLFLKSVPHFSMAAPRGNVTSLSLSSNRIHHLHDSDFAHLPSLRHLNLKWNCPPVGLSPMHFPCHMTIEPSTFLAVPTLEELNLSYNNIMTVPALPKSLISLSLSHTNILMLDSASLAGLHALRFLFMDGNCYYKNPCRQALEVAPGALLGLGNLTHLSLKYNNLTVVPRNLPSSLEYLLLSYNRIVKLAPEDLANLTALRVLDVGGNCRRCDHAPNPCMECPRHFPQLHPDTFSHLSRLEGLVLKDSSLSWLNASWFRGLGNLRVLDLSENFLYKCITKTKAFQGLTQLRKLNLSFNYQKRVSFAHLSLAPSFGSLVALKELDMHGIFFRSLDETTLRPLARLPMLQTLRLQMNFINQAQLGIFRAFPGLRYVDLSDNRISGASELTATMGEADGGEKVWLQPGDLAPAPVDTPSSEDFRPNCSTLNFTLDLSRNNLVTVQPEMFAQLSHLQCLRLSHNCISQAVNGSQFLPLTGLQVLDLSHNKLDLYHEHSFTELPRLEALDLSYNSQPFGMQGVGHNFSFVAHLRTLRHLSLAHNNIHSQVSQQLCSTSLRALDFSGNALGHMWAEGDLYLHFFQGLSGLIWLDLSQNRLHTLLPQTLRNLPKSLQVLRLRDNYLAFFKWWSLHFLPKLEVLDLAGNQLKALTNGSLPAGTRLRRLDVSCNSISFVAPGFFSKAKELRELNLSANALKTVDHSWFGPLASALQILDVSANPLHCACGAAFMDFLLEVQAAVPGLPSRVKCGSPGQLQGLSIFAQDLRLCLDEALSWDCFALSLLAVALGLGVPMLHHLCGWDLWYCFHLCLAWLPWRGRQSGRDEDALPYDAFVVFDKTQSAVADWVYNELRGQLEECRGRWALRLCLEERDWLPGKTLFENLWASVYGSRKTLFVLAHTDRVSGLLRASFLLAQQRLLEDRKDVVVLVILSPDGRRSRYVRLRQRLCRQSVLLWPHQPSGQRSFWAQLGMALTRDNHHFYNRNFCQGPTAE

[3] = target: human TLR7 (Homo sapiens (Human), UniProt Q9NYK1); assay: TLR7 inhibition reporter assay (HEK-Blue cells, SEAP reporter, gardiquimod stimulation); assay type: cell-based
Chain of human TLR7 (Q9NYK1 27-1049): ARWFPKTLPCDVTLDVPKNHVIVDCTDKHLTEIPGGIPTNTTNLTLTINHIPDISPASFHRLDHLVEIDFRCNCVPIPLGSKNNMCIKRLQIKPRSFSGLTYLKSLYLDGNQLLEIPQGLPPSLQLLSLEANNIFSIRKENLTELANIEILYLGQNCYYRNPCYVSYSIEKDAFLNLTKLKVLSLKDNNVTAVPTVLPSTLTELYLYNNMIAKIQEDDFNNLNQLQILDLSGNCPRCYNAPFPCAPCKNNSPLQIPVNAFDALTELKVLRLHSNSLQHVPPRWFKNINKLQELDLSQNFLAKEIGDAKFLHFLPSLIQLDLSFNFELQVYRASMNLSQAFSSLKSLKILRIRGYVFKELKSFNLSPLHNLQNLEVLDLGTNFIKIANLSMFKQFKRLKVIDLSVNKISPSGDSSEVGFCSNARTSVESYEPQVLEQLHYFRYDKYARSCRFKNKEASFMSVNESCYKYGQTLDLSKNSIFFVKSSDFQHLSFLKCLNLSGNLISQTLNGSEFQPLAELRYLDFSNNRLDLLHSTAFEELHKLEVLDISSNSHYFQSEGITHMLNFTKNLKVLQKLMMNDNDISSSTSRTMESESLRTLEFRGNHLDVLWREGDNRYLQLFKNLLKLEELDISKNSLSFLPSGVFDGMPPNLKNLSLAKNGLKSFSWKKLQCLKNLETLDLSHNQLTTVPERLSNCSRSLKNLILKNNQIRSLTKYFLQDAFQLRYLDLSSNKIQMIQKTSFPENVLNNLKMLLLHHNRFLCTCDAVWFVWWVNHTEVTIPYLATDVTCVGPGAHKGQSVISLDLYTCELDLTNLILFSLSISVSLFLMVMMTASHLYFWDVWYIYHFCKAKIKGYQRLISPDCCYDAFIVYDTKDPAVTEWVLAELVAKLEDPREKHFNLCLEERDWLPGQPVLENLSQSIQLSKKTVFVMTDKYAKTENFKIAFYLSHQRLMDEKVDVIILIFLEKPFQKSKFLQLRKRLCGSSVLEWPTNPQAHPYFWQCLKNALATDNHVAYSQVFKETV

[4] = read-out: TLR8 IC50, HEK-Blue cells overexpressing human TLR8, R848 15.9 μM
[5] = read-out: TLR9 IC50, HEK-Blue cells overexpressing human TLR9, ODN2006 5 nM
[6] = HEK-Blue cells overexpressing human TLR7, gardiquimod 7.5 μM
[7] = read-out: TLR8 IC50, HEK-Blue cells, R848 15.9 μM
[8] = read-out: TLR9 IC50, HEK-Blue cells, ODN2006 5 nM
[9] = HEK-Blue cells, gardiquimod 7.5 μM

Chain of human TLR8 (Q9NR97 27-1041): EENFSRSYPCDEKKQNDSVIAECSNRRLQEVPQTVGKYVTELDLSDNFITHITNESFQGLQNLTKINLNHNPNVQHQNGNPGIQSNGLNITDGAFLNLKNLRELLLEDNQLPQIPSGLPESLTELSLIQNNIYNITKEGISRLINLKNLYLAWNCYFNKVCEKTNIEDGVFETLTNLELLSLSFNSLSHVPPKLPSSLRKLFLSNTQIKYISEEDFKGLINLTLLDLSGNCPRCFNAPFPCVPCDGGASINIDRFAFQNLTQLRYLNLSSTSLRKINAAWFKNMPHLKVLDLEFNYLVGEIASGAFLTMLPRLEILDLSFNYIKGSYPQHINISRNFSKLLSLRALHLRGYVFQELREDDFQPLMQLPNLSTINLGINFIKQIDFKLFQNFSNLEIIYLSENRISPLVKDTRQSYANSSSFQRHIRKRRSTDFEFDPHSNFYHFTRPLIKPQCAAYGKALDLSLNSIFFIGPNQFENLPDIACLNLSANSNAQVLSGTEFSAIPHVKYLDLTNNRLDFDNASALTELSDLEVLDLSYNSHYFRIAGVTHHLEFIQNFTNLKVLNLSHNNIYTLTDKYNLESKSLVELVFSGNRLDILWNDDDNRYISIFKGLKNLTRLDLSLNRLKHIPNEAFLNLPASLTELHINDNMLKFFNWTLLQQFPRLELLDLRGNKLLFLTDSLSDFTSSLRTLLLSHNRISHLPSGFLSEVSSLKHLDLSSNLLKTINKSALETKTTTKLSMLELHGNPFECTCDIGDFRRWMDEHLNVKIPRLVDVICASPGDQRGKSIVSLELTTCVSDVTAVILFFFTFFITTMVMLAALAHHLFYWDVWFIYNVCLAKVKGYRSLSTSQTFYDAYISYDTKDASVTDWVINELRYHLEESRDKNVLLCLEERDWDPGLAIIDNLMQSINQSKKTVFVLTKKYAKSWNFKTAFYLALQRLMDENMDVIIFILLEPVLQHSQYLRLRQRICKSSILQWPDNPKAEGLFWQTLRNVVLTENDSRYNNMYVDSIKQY

Row | IC50 [1, 4] | IC50 [2, 5] | IC50 [3, 6] | IC50 ([1]; TLR8 IC50, HEK-Blue cells overexpressing human TLR8, R848 15.9 μM) | IC50 ([2]; TLR9 IC50, HEK-Blue cells overexpressing human TLR9, ODN2006 5 nM) | IC50 [1, 7] | IC50 [2, 8] | IC50 [3, 9] | SMILES
1 | 16.7 nM | 1450 nM | 31.7 nM |  |  |  |  |  | CCOCCN1CCC(c2ccc3[nH]c(-c4ccnc(C)c4)c(C(C)C)c3c2)CC1 [Example 659, 5-(1-(2-ethoxyethyl)piperidin-4-yl)-3-isopropyl-2-(2-methylpyridin-4-yl)-1H-indole]
2 | 39.7 nM | 14200 nM | 4.6 nM |  |  |  |  |  | Cc1cc(-c2[nH]c3ccc(C4CCN(C(=O)CN5CCOC5=O)CC4)cc3c2C(C)C)cc(C)n1 [Example 164, 3-(2-(4-(2-(2,6-dimethylpyridin-4-yl)-3-isopropyl-1H-indol-5-yl)piperidin-1-yl)-2-oxoethyl) oxazolidin-2-one]
3 | 67.4 nM | > 50000 nM | 186 nM |  |  |  |  |  | Cc1cc(-c2[nH]c3ccc(C4CCNC(=O)C4)cc3c2C(C)C)ccn1 (stereo not drawn) [Example 490, 4-(3-isopropyl-2-(2-methylpyridin-4-yl)-1H-indol-5-yl)piperidin-2-one]
4 | 29.2 nM | 1120 nM | 16.1 nM |  |  |  |  |  | Cc1cc(-c2[nH]c3ccc(C4CCN(C5CCCC5)CC4)cc3c2C(C)C)cc(C)n1 [Example 326, 5-(1-cyclopentylpiperidin-4-yl)-2-(2,6-dimethylpyridin-4-yl)-3-isopropyl-1H-indole]
5 | 12.3 nM | 1930 nM | 19 nM |  |  |  |  |  | Cc1cc(-c2[nH]c3ccc(C4CCN(CCC(F)(F)F)CC4)cc3c2C(C)C)ccn1 [Example 676, 3-isopropyl-2-(2-methylpyridin-4-yl)-5-(1-(3,3,3-trifluoropropyl)piperidin-4-yl)-1H-indole]
6 | 98 nM | 10700 nM | 30 nM |  |  |  |  |  | Cc1cc(-c2[nH]c3ccc(C4CCN(C(=O)c5c(C)n[nH]c5C)CC4)cc3c2C(C)C)cc(C)n1 [Example 121, (3,5-dimethyl-1H-pyrazol-4-yl)(4-(2-(2,6-dimethylpyridin-4-yl)-3-isopropyl-1H-indol-5-yl)piperidin-1-yl)methanone]
7 | 28.2 nM | 119 nM | 6.6 nM |  |  |  |  |  | CCc1c(-c2cc(C)nc(C)c2)[nH]c2ccc(C3CCN(C(=O)CNC)CC3)cc12 [Example 529, 1-(4-(2-(2,6-dimethylpyridin-4-yl)-3-ethyl-1H-indol-5-yl)piperidin-1-yl)-2-(methylamino)ethan-1-one]
8 | 93.8 nM | 1060 nM | 10.3 nM |  |  |  |  |  | Cc1cc(-c2[nH]c3ccc(C4CCN(C(=O)CNCCC(C)O)CC4)cc3c2C(C)C)cc(C)n1 (stereo not drawn) [Example 369, 1-(4-(2-(2,6-dimethylpyridin-4-yl)-3-isopropyl-1H-indol-5-yl)piperidin-1-yl)-2-((3-hydroxybutyl)amino)ethan-1-one]
9 | 32.7 nM | 348 nM | 84.7 nM |  |  |  |  |  | CCc1c(-c2ccnc(C)c2)[nH]c2ccc(C3CCN(C(=O)C4CCNC4)CC3)cc12 (stereo not drawn) [Example 595, (4-(3-ethyl-2-(2-methylpyridin-4-yl)-1H-indol-5-yl)piperidin-1-yl)(pyrrolidin-3-yl)methanone]
10 | 72.5 nM | 846 nM | 7.6 nM |  |  |  |  |  | Cc1cc(-c2[nH]c3ccc(C4CCN(C(=O)CN(C)CCC5(O)CCCC5)CC4)cc3c2C(C)C)cc(C)n1 [Example 408, 1-(4-(2-(2,6-dimethylpyridin-4-yl)-3-isopropyl-1H-indol-5-yl)piperidin-1-yl)-2-((2-(1-hydroxycyclopentyl)ethyl)(methyl)amino)ethan-1-one]
11 | 3.9 nM | 359 nM | 1.4 nM |  |  |  |  |  | CCCN1CCC(c2ccc3[nH]c(-c4cc(C)nc(C)c4)c(C(C)C)c3c2)CC1 [Example 323, 2-(2,6-dimethylpyridin-4-yl)-3-isopropyl-5-(1-propylpiperidin-4-yl)-1H-indole]
12 | 10.4 nM | 253 nM | 3.2 nM |  |  |  |  |  | CCC(C)NCC(=O)N1CCC(c2ccc3[nH]c(-c4cc(C)nc(C)c4)c(C(C)C)c3c2)CC1 (stereo not drawn) [Example 392, 2-(sec-butylamino)-1-(4-(2-(2,6-dimethylpyridin-4-yl)-3-isopropyl-1H-indol-5-yl)piperidin-1-yl)ethan-1-one]
13 | 121 nM | 32900 nM | 33.7 nM |  |  |  |  |  | Cc1cc(-c2[nH]c3ccc(C4CCN(C(=O)CC#N)CC4)cc3c2C(C)C)ccn1 [Example 616, 3-(4-(3-isopropyl-2-(2-methylpyridin-4-yl)-1H-indol-5-yl)piperidin-1-yl)-3-oxopropanenitrile]
14 | 7.4 nM | 19800 nM | 13.8 nM |  |  |  |  |  | Cc1cc(-c2[nH]c3ccc(C4CCN(C5COC5)CC4)cc3c2C(C)C)c(F)cn1 [Example 721, 2-(5-fluoro-2-methylpyridin-4-yl)-3-isopropyl-5-(1-(oxetan-3-yl)piperidin-4-yl)-1H-indole]
15 | 7.3 nM | 559 nM | 3.1 nM |  |  |  |  |  | Cc1cc(-c2[nH]c3ccc(C4CCN(C(=O)CN5CCCCC5)CC4)cc3c2C(C)C)cc(C)n1 [Example 351, 1-(4-(2-(2,6-dimethylpyridin-4-yl)-3-isopropyl-1H-indol-5-yl)piperidin-1-yl)-2-(piperidin-1-yl)ethan-1-one]
16 |  |  |  |  |  | 539 nM | > 50000 nM | 44.1 nM | Cc1cc(-c2[nH]c3ccc(C4CCN(C(=O)C(=O)O)CC4)cc3c2C(C)C)cc(C)n1 [Example 859, 2-(4-(2-(2,6-dimethylpyridin-4-yl)-3-isopropyl-1H-indol-5-yl)piperidin-1-yl)-2-oxoacetic acid]

More lines, now with the values behind:

Row | SMILES | IC50 [1, 4] | IC50 [2, 5] | IC50 [3, 6] | IC50 ([1]; TLR8 IC50, HEK-Blue cells overexpressing human TLR8, R848 15.9 μM) | IC50 ([2]; TLR9 IC50, HEK-Blue cells overexpressing human TLR9, ODN2006 5 nM) | IC50 [1, 7] | IC50 [2, 8] | IC50 [3, 9]
17 | Cc1cc(-c2[nH]c3ccc(C4CCN(C(=O)CNCC(C)(C)N5CCOCC5)CC4)cc3c2C(C)C)cc(C)n1 [Example 371, 1-(4-(2-(2,6-dimethylpyridin-4-yl)-3-isopropyl-1H-indol-5-yl)piperidin-1-yl)-2-((2-methyl-2-morpholinopropyl)amino)ethan-1-one] |  |  | 3.7 nM | 20.4 nM | 241 nM |  |  | 
18 | Cc1cc(-c2[nH]c3ccc(C4CCN(CC(=O)N(C)CC(O)c5ccccc5)CC4)cc3c2C(C)C)cc(C)n1 (stereo not drawn) [Example 296, 2-(4-(2-(2,6-dimethylpyridin-4-yl)-3-isopropyl-1H-indol-5-yl)piperidin-1-yl)-N-(2-hydroxy-2-phenylethyl)-N-methylacetamide] | 46.2 nM | 553 nM | 10.5 nM |  |  |  |  | 
19 | Cc1cc(-c2[nH]c3ccc(C4CCN(CC(=O)NC5(C)COC5)CC4)cc3c2C(C)C)cc(C)n1 [Example 233, 2-(4-(2-(2,6-dimethylpyridin-4-yl)-3-isopropyl-1H-indol-5-yl)piperidin-1-yl)-N-(3-methyloxetan-3-yl)acetamide] | 6.4 nM | 970 nM | 6.3 nM |  |  |  |  | 
20 | Cc1cc(-c2[nH]c3ccc(C4CCN(CC5(C)COC5)CC4)cc3c2C(C)C)c(C)cn1 [Example 872, 2-(2,5-dimethylpyridin-4-yl)-3-isopropyl-5-(1-((3-methyloxetan-3-yl)methyl)piperidin-4-yl)-1H-indole] |  |  |  |  |  | 2.8 nM | 2320 nM | 20.6 nM
21 | Cc1cc(-c2[nH]c3ccc(C4CCN(CC5CN(Cc6ccccc6)CCO5)CC4)cc3c2C(C)C)cc(C)n1 (stereo not drawn) [Example 320, 4-benzyl-2-((4-(2-(2,6-dimethylpyridin-4-yl)-3-isopropyl-1H-indol-5-yl)piperidin-1-yl)methyl)morpholine] | 21.8 nM | 192 nM | 18.2 nM |  |  |  |  | 
22 | COCCN1CCC(c2ccc3[nH]c(-c4cc(C)nc(C)c4)c(C(C)C)c3c2)CC1 [Example 325, 2-(2,6-dimethylpyridin-4-yl)-3-isopropyl-5-(1-(2-methoxyethyl)piperidin-4-yl)-1H-indole] | 3.8 nM | 343 nM | 3.1 nM |  |  |  |  | 
23 | Cc1cc(-c2[nH]c3ccc(C4CCNCC4)c(F)c3c2C(C)C)ccn1 [Example 76, 4-fluoro-3-isopropyl-2-(2-methylpyridin-4-yl)-5-(piperidin-4-yl)-1H-indole] | 2.7 nM | 440 nM | 1.4 nM |  |  |  |  | 
24 | Cc1cc(-c2[nH]c3ccc(C4CCN(CC(=O)NCC(C)O)CC4)cc3c2C(C)C)cc(C)n1 (stereo not drawn) [Example 260, 2-(4-(2-(2,6-dimethylpyridin-4-yl)-3-isopropyl-1H-indol-5-yl)piperidin-1-yl)-N-(2-hydroxypropyl) acetamide] | 5.1 nM | 379 nM | 1.5 nM |  |  |  |  | 
25 | Cc1cc(-c2[nH]c3ccc(C4CCN(CC(=O)NCCC(C)C)CC4)cc3c2C(C)C)cc(C)n1 [Example 237, 2-(4-(2-(2,6-dimethylpyridin-4-yl)-3-isopropyl-1H-indol-5-yl)piperidin-1-yl)-N-isopentylacetamide] | 51.1 nM | 1890 nM | 24.9 nM |  |  |  |  | 
26 | Cc1cc(-c2[nH]c3ccc(C4CCNCC4)cc3c2C(C)C)c(Cl)c(C)n1 [Example 50, 2-(3-chloro-2,6-dimethylpyridin-4-yl)-3-isopropyl-5-(piperidin-4-yl)-1H-indole] | 1.9 nM | 12700 nM | 3.2 nM |  |  |  |  | 
27 | Cc1cc(-c2[nH]c3ccc(C4CCN(C(=O)CNC56CC7CC(CC(C7)C5)C6)CC4)cc3c2C(C)C)cc(C)n1 [Example 342, 2-(adamantan-1-ylamino)-1-(4-(2-(2,6-dimethylpyridin-4-yl)-3-isopropyl-1H-indol-5-yl)piperidin-1-yl)ethan-1-one] | 67.1 nM | 656 nM | 26.2 nM |  |  |  |  | 
28 | Cc1nccc(-c2[nH]c3ccc(C4CCN(C5CCN(C(C)C)CC5)CC4)cc3c2C)c1C [Example 812, 2-(2,3-dimethylpyridin-4-yl)-5-(1′-isopropyl-[1,4′-bipiperidin]-4-yl)-3-methyl-1H-indole] |  |  |  |  |  | 44.5 nM | 35 nM | 404 nM
